The numbers were not newly measured in patent US5849746A, “Substituted 1,4-piperazine-heteroaryl derivatives as 5-HT1D receptor agonists” (Merck Sharp & Dohme Ltd., priority 1995, dated 1998), which cites them from elsewhere.

The conditions of data set [1]: humans, therapeutic doses.
In data set [2] the test system is human 5-HT1Dα and 5-HT1Dβ receptor subtypes. The following applies: cf. WO-A-91/17174, Table 1.

Turning to `CNS(=O)(=O)Cc1ccc2[nH]cc(CCN(C)C)c2c1` [sumatriptan], in data set [1], the adverse cardiovascular events result is on record as “certain adverse cardiovascular events”. Besides, in data set [2], the “discrimination between human 5-HT1Dα and 5-HT1Dβ receptor subtypes (in words)” value was “barely discriminates between the human 5-HT1Dα and 5-HT1Dβ receptor subtypes”.
